The results in this text go back to US20230255969A1, “TARGETING IMMUNE P[…] BY HIGHLY PATHOGENIC CORONAVIRUSES” (priority 2020, published 2023).

The subject of the assay is bone marrow derived mast cells (BMMCs). Format: cell-based, C57Bl/6 mouse.

Consider `O=C(O)c1cc(=O)c2c(OCC(O)COc3cccc4oc(C(=O)O)cc(=O)c34)cccc2o1` [cromolyn, 5-[3-(2-carboxy-4-oxochromen-5-yl)oxy-2-hydroxypropoxy]-4-oxochromene-2-carboxylic acid], for which the “Mast cell degranulation in response to SARS-CoV-2 Spike protein (percentage degranulation)” value was “reduced”.
